Laboratory results: ChEMBL document CHEMBL4619773, “Chemoreactive-Inspired Discovery of Influenza A Virus Dual Inhibitor to Block Hemagglutinin-Mediated Adsorption and Membrane Fusion” (J Med Chem, 2020)

System: Influenza A virus
Type: functional, organism-based

How did the IC50 turn out when CC(=O)c1cc(C)c(O)c(Cc2[nH]c3ccccc3c2Cc2c(O)c(C)cc(C(C)=O)c2O)c1O was run?
The IC50 was > 42 µg/mL.
